Reference: patent US11324706B2, “Composition for inhibiting growth of breast cancer stem cells containing phenylacetaldehyde” (JEJU NATIONAL UNIVERSITY INDUSTRY-ACADEMIC COOPERATION …, priority 2016, dated 2022)

Tested on: MCF-7 cell-derived mammospheres
Assay: Mammosphere formation, MCF-7-derived
Assay type: cell-based, human
Settings: volatile materials exposed to MCF-7 (FIG. 5B)
Method: FIGS. 4A, 4B and 4C show effects of PAA on formation of MCF-7 cell-derived mammospheres. Primary mammospheres were cultured together with PAA (0.2 and 0.5 mM) or DMSO;
Human breast cancer cells, i.e., MCF-7 and MDA-MB-231, were commercially obtained from American Type Culture Collection (ATCC; Manassas, Va., USA). MCF-7 and MDA-MB-231 cells were cultured in Dulbecco's modified essential medium (DMEM; Hyclone, Logan, Utah, USA) containing 10% fetal bovine serum (FBS; Hyclone), 100 U/mL of penicillin, and 100 μg/mL of streptomycin (Hyclone). The MCF-7 and MDA-MB-231 cells were maintained at 37° C. in a 5% CO2-containing humidified incubator. The cells were plated at a density of 1×10^6 on a 10 cm petri dish. In order to establish primary mammospheres, single cell-suspended MCF-7 and MDA-MB-231 cells were seeded at a density (cells/well) of 3.5×10^4 to 4×10^4 and 0.5×10^4 to 1×10^4, respectively, on ultra-low attachment 6-well plates containing 2 ml complete MammoCult™ medium (StemCell Technologies, Vancouver, BC, Canada). The complete MammoCult™ medium was supplemented with 4 μg/mL of heparin, 0.48 μg/mL of hydrocortisone, 100 U/mL of penicillin and 100 μg/mL of streptomycin. The cells were cultured for 7 days in a 37° C. 5% CO2 incubator.
At 7 days of culture, the cell culture plate was disposed on a scanner (Epson Perfection V700 PHOTO, Epson Korea, Co, Seoul, Korea) to obtain an 8 bit gray scale image of mammospheres. The image was obtained at a low resolution (300 dpi) using an NICE software program and downloaded from ftp://ftp.nist.gov/pub/physics/mLclarke/NICE. For counting, preferred numbers of rows and columns (for example, 2×3 of 6-well plate) were selected to form regions of interest (ROIs), and an oval setting of the NICE program was selected and then respective ROIs were defined by moving the shapes of provided ROIs and controlling the sizes thereof. The background signal of the image was negated using a critical algorithm and the selected image was automatically counted. Regarding the mammosphere formation analysis, formation efficiency of mammospheres (MFE, %) was determined in accordance with the number of mammospheres per well/the total number of cells plated per well×100.

CC(C=O)c1ccccc1 (centres unmarked) [2-phenylpropionaldehyde]
formation of primary mammospheres derived from MCF-7 cells: potently inhibited

O=CCCc1ccccc1 [3-phenylpropionaldehyde]
formation of primary mammospheres derived from MCF-7 cells: inhibited
